Data from patent publication US20040091479A1, “T-cell epitope of the papillomavirus l1 and e7 protein and use thereof in diagnostics and therapy” (priority 2000, published 2004).
Where a SMILES comes first, the peptide text is derived from it.

Assays:
[1] = tested on: CVLP-stimulated human CD4-positive T cells; assay: Restimulating HPV18 CVLP-stimulated T cells with BLCL presenting HPV18 peptide pools (example 6); type: cell-based; conditions: peptide common to two reactive HPV18 pools; CD4/IFNγ
Protocol: Human T cells (4×10^5) from a non-HLA-typed blood donor were stimulated for 1 week with HPV18 L1ΔCDIE71-53DI CVLPs and HPV18 L1ΔACDIE71-60DI CVLPS, 800 U of human GM-CSF/ml and 500 U of human IL4/ml and also, for a further 5 weeks, with HPV18 L1ΔCDIE71-53DI CVLPs and HPV18 L1ΔCDIE71-6ODI CVLPs at 37° C., with the weekly addition of 1 μg of the CVLPs mixLure (ratio of the two constructs 1:1)/ml and 10^5 antigen-presenting cells (irradiated PMBC), and harvested.
The 20 mer peptides Q1 to 52 were assembled into peptide pools A to H and 1 to 7, respectively, in accordance with the matrix
The T cells were then restimulated, at 37° C. and in 100 μl of medium, with the peptide pools and 10^5 antigen-presenting cells (donor-identical BLCL) in the presence of 10 IU of IL2/ml. The quantities of the peptide pools which were used in this connection were such that. 1 μg/ml was added in the case of each individual peptide.
Cells which were only incubated with buffer served as the negative control while cells incubated with the HPV18 L1 peptide pool and the HPV18 E7 peptide pool, respectively, served as positive controls.
(§1) 1 μl of monensin was added after an hour. The cells were then incubated at 37° C. for a further 5 hours. After that, the cells were fixed and permeabilized and stained with α-human CD8/APC, with α-human CD4/PerCP and with α-human IFNγ/FITC. The labeling of the cells was analyzed in a FACScan Calibur and the results of the measurements were analyzed using Cellquest software.

[2] = tested on: CVLP-stimulated CD8-positive T cells; assay: Restimulating HPV16 CVLP-stimulated T cells with BLCL presenting HPV16 peptide pools (example 10); type: cell-based, human; conditions: peptide common to two reactive HPV16 pools
Protocol: (§2) In analogy with example 6, human T cells derived from a non-HLA-typed blood donor were stimulated with HPV16L1ΔC*E71-55 CVLPs and harvested.
(§3) The T cells were then restimulated, at 37° C. and in 100 μl of medium, with the peptide pools from example 7 and 10^5 antigen-presenting cells (donor-identical BLCL) in the presence of 10 IU of IL2/ml. Use was made, in this connection, of quantities of the peptide pools which was such that 1 μg/ml was added in the case of each individual peptide. Cells which were only incubated with buffer served as the negative control while cells which were incubated with HPV16 L1 peptide pool served as positive controls.
as §1, with “was examined” for “was analyzed”

[3] = tested on: peptide-stimulated murine CD8-positive T cells; assay: Restimulating HPV18 peptide-stimulated murine T cells with peptide-presenting LKK cells (IFNγ FACScan); type: cell-based, C3H mice; conditions: for proportion of CD8-positive T cells reactive on the basis of IFNγ expression: 1 μg peptide/ml, LKK cells, T cells of HPV18 CVLP-inoculated C3H mice, FIG. 3, 4; for T cell epitope assignment: conclusion from FIG. 3, 4
Protocol: Murine T cells (4×10^5) derived from C3H mice inoculated with HPV18 L1ΔCDIE71-53DI CVLPs and HPV18 L1ΔCDIE71-6ODI CVLPs were stimulated for 5 weeks with HPV18 L1 or E7 peptide pools at 37° C., with the weekly addition of 1 μg of each individual peptide/ml and 10^5 antigen-presenting cells (irradiated splenocytes), and harvested. The cells were then restimulated, at 37° C. and in 100 μl of medium, with 1 μg of the peptides given on the X axis in FIG. 3/ml and 10^5 antigen-presenting cells (LKK) in the presence of 10 IU of IL2/ml. Cells which were only incubated with buffer served as the negative control.
1 μl of monensin (300 μm) was added after an hour. The cells were incubated at 37° C. for a further 5 hours. The cells were then fixed and permeabilized and stained with α-mouse CD8/PE, with α-mouse CD4/cychrome and with α-mouse interferony/FITC. The labeling of the cells was analyzed in a FACScan Calibur and the results of the measurement were analyzed using Cellquest software.

RMA cells = assay: 51Cr release: lysing HPV18 peptide-loaded RMA cells (example 17); type: cell-based, murine; conditions: for T cell epitope assignment: conclusion from FIG. 16 upper part; for specific lysis of target cells (51Cr release): peptide-loaded RMA cells, effector:target 20, FIG. 16 upper part
Protocol: In analogy with example 4, RMA or LKK cells were radioactively labeled with ^51Cr and incubated with the peptides (Q43 and Q44 in the upper part of FIG. 16 and Q49 in the lower part of FIG. 16) which are plotted on the X axis. Cells without peptide served as negative controls. T cells which had previously been stimulated with the peptide pool were then added.
The lysis of the RMA cells or LKK cells by the T cells was measured by the release of the ^51Cr and calculated as described in example 4.

[4] = tested on: HPV18 L1 peptide pool-stimulated CD8-positive T cells; assay: Restimulating HPV18 L1 peptide-stimulated T cells with Q9-presenting BLCL (example 8); type: cell-based, human
Protocol: In analogy with example 3, human T cells (4×10^5) derived from an HLA A24-positive donor were stimulated for 3 weeks with the HPV18 L1 peptide pool, at 37° C., with the weekly addition of 1 μg of each individual peptide/ml and 10^5 antigen-presenting cells (irradiated PMBC), and harvested.
The cells were then restimulated, at 37° C. in 100 μl of medium, with 10 μg of the HPV18 L1 peptide Q9/ml and 10^5 antigen-presenting cells (donor-identical BLCL) in the presence of 10 IU of IL2/ml. Cells which were only incubated with buffer served as the negative control.
as §1, with “of monensin (300 μM) was added” for “of monensin was added”, “cells were then fixed and” for “cells were fixed and”, “cells was examined in a” for “cells was analyzed in a”

[5] = tested on: CVLP-stimulated T cells (CD4-positive); assay: Restimulating HPV16 CVLP-stimulated T cells with BLCL presenting pools or P39 (example 9; IFNγ and IL4); type: cell-based, human; conditions: for T cell epitope assignment (TH2): peptide common to two reactive HPV16 pools, CD4/IL4
Protocol: as §2, §3
as §1, with “was examined” for “was analyzed”

human T cells = assay: Summary of examples 3 to 18: epitopes recognized by human T cells; type: cell-based; conditions: Table 3, HPV16 peptides, species human; TC cytotoxic, TH T helper
[6] = tested on: HPV18 CVLP-stimulated human T cells; assay: Restimulating HPV18 CVLP-stimulated T cells with BLCL presenting Q38, Q39, Q46 or Q47 (example 13); type: cell-based; conditions: conclusion from FIG. 12 top right
Protocol: In analogy with example 6, human T cells (4×10^5) derived from a non-HLA-typed blood donor were stimulated with HPV18L1ΔCDIE71-53DI CVLPs and HPV18L1ΔCDIE71-60DI CVLPs and harvested.
The T cells were then restimulated, at 37° C. and in 100 μl of medium, with in each case 1 μg of peptide Q38, Q39, Q46 or Q47/ml and 10^5 antigen-presenting cells (donor-identical BLCL) in the presence of 10 IU of IL2/ml. Cells which were only incubated with buffer served as the negative control while cells which were incubated with the HPV18 L1 peptide pool or the E7 peptide pool served as positive controls.
as §1, with “was examined” for “was analyzed”

[7] = tested on: CVLP-stimulated CD8-positive T cells; assay: Restimulating HPV16 CVLP-stimulated T cells with BLCL presenting HPV16 peptide pools (example 14); type: cell-based, human; conditions: peptide common to two reactive HPV16 pools; CD8/IFNγ
Protocol: as §2
The T cells were then restimulated, at 37° C. and in 100 μl of medium, with the peptide pools from example 7 and 10^5 antigen-presenting cells (donor-identical BLCL) in the presence of 10 IU of IL2/ml. Use was made, in this connection, of quantities of the peptide pools which were such that 1 μg/ml was added in the case of each individual peptide. Cells which were only incubated with buffer served as the negative control, while cells which were incubated with the HPV16 L1 or E7 peptide pool served as positive controls.
as §1, with “was examined” for “was analyzed”

For “GGNKQDIPKVSAYQYRVFRV [Q6, HPV18 L1 56-75]”, which “T cell epitope assignment” value [1] is on record?
Its value is “contains a T helper epitope”.

For “MALWRPSDNTVYLPPPSVAR [Q1, HPV18 L1 1-20]”, which “T cell epitope assignment” value [1] is on record?
Its value is “contain T helper epitopes”.

Which “T cell epitope assignment” value [2] does the source give for “YLPPVPVSKVVSTDEYVART [P2, HPV16 L1 12-31]” here?
Its value is “contain a cytotoxic T cell epitope”.

How did the “proportion of CD8-positive T cells reactive on the basis of IFNγ expression” value (“proportion … of IFNγ expression” below) [3] turn out when “YPLGRKFLVQAGMHGPKATL [Q43, HPV18 L1 463-474 and E7 1-8]” was run?
The value was “brought about a restimulation”.

What about the “T cell epitope assignment” value [3] of the same molecule?
The value was “contain H2k-restricted cytotoxic T cell epitopes”.

What about the “T cell epitope assignment” value (RMA cells) of the same molecule?
Its value is “H2b-restricted cytotoxic T cell epitopes”.

What about the “specific lysis of target cells (51Cr release)” value (RMA cells) of the same molecule?
The value was “able to efficiently lyse”.

With “MHGPKATLQDIVLHLEPQNE [Q44, HPV18 E7 1-20]” as the molecule, how does the “proportion … of IFNγ expression” value [3] read?
Its value is “brought about a restimulation”.

And the “T cell epitope assignment” value [3]?
Its value is “contain H2k-restricted cytotoxic T cell epitopes”.

And the “T cell epitope assignment” value (RMA cells)?
The value was “H2b-restricted cytotoxic T cell epitopes”.

And the “specific lysis of target cells (51Cr release)” value (RMA cells)?
Its value is “able to efficiently lyse”.

Which “proportion … of IFNγ expression” value ([4]; 10 μg Q9/ml, donor-identical BLCL, HLA A24-positive donor, FIG. 7) does the source give for “SIYNPETQRLVWACAGVEIG [Q9, HPV18 L1 89-108]” here?
Its value is “brought about a restimulation”.

And the “T cell epitope assignment” value ([4]; conclusion from FIG. 7)?
Its value is “contains an HLA A24-restricted cytotoxic T cell epitope”.

With “RFVTSQAIACQKHTPPAPKE [P39, HPV16 L1 419-438]” as the molecule, how does the “T cell epitope assignment (TH1)” value ([5]; CD4-positive and IFNγ-positive, pools G and 5 and P39 alone) read?
Its value is “contains a T helper epitope”.

And the “proportion of CD4-positive and IFNγ-positive cells (TH1)” value ([5]; HPV16 pools or P39, donor-identical BLCL, FIG. 8 top)?
The value was “very high”.

What about the “T cell epitope assignment (TH2)” value [5] of the same molecule?
Its value is “contains a TH2 epitope”.

And the Epitope type (human T cells)?
The Epitope type was “TH1, TH2”.

With `CC[C@H](C)[C@H](NC(=O)[C@H](CCC(=O)O)NC(=O)[C@H](CC(=O)O)NC(=O)[C@H](CC(N)=O)NC(=O)[C@H](CCC(=O)O)NC(=O)[C@H](CCC(=O)O)NC(=O)[C@H](CCC(=O)O)NC(=O)[C@@H](N)CO)C(=O)N[C@@H](CC(=O)O)C(=O)NCC(=O)N[C@H](C(=O)N[C@@H](CC(N)=O)C(=O)N[C@@H](Cc1c[nH]cn1)C(=O)N[C@@H](CCC(N)=O)C(=O)N[C@@H](Cc1c[nH]cn1)C(=O)N[C@@H](CC(C)C)C(=O)N1CCC[C@H]1C(=O)N[C@@H](C)C(=O)N[C@@H](CCCNC(=N)N)C(=O)N[C@@H](CCCNC(=N)N)C(=O)O)C(C)C` [Q47] (H-SEEENDEIDGVNHQHLPARR-OH; N-terminus and C-terminus assumed) as the molecule, how does the “T cell epitope assignment (cytotoxic)” value [6] read?
The value was “contain cytotoxic T cell epitopes”.

Which “T cell epitope assignment” value ([4]; 9mer within Q9, deduced from Q9 result and HLA A24 prediction) does the source give for “IYNPETQRL [HPV18 L1 90-98, contained in peptide Q9]” here?
The value was “HLA A24-restricted cytotoxic T cell epitope”.

What does the source list for “VGHPYFPIKKPNNNKILVPK [P5, HPV16 L1 45-64]”?
T cell epitope assignment [2]: contain a cytotoxic T cell epitope; T cell epitope assignment [7]: contain a cytotoxic T cell epitope

“PPPGGTLEDTYRFVTSQAIA [P38, HPV16 L1 408-427]” was tested. Which “T cell epitope assignment (TH2)” value [5] did it give?
Its value is “contains a TH2 epitope”.

What about the Epitope type (human T cells) of the same molecule?
Its Epitope type is “TH2”.

With “PYDKLKFWNVDLKEKFSLDL [Q41, HPV18 L1 441-460]” as the molecule, how does the “proportion … of IFNγ expression” value [3] read?
The value was “brought about a restimulation”.

And the “T cell epitope assignment” value [3]?
Its value is “contain H2k-restricted cytotoxic T cell epitopes”.

What about the “T cell epitope assignment” value [1] of the same molecule?
The value was “contain T helper epitopes”.

With GLQYRVFRIHLPDPNKFGFP [P7] as the molecule, how does the “T cell epitope assignment” value [2] read?
Its value is “contain a cytotoxic T cell epitope”.
